tested on: HCV Replicon IB; assay: HCV replicon assay in Huh-7 cells, genotype 1b (Rluc luciferase readout); assay type: cell-based, hepatitis C virus; conditions: HCV1B replicon, Huh-7 cells, 3 days; read-out: EC50_HCV1B_

Structure (SMILES)	EC50 [nM]
Cc1cc(-c2nnc(NC3CCC(O)(CF)C3)o2)nc2c(C(C)(C)C)cc(OCC(F)(F)F)cc12 (centres unmarked) [Compound 490]	50
Cc1cc(-c2nnc(N[C@H]3CC[C@@](C)(O)CC3)o2)nc2c(C(C)(C)C)cc(OCC(F)(F)F)cc12 [Compound 496]	13.7
Cc1cc(-c2nnc(N[C@H]3CC[C@@](C)(O)CC3)o2)nc2c(C(C)(C)C)cc(OCC(F)(F)F)cc12 [Compound 497]	73.7
COC[C@]1(O)C[C@H](Nc2nnc(-c3cc(C)c4cc(OCC(F)(F)F)cc(C(C)(C)C)c4n3)o2)C1 [Compound 504]	9.86
Cc1cc(-c2nnc(N[C@H]3C[C@](O)(CO)C3)o2)nc2c(C(C)(C)C)cc(C3CC3)cc12 [Compound 513]	8.11

same assay, conditions: Hepatitis C virus, Huh-7, 72 h, HCV1B replicon, Huh-7 cells, 3 days; read-out: EC50_HCV1B_

Structure (SMILES)	EC50 [nM]
Cc1cc(-c2nnc(N[C@H]3C[C@](O)(C(F)F)C3)o2)nc2c(C(C)(C)C)cc(OCC(F)(F)F)cc12 [Compound 468]	0.36
Cc1cc(-c2nnc(NC3CC(O)(C(F)(F)F)C3)o2)nc2c(C(C)(C)C)cc(OCC(F)(F)F)cc12 (centres unmarked) [Compound 469]	115
CC[C@]1(O)C[C@@H](Nc2nnc(-c3cc(C)c4cc(OCC(F)(F)F)cc(C(C)(C)C)c4n3)o2)C1 [Compound 478]	1.48
Cc1cc(-c2nnc(NCC3OCCS3)o2)nc2c(C(C)(C)C)cc(OCC(F)(F)F)cc12 (centres unmarked) [Compound 479]	1.14
Cc1cc(-c2nnc(N[C@H]3C[C@@H](OP(=O)(O)O)C3)o2)nc2c(C(C)(C)C)cc(OCC(F)(F)F)cc12 [Compound 480]	1.24
Cc1cc(-c2nnc(N[C@H]3C[C@](O)(C(F)S(=O)(=O)c4ccccc4)C3)o2)nc2c(C(C)(C)C)cc(OCC(F)(F)F)cc12 (some centres unmarked) [Compound 481]	2880
Cc1cc(-c2nnc(N[C@H]3C[C@](O)(CCF)C3)o2)nc2c(C(C)(C)C)cc(OCC(F)(F)F)cc12 [Compound 482]	2.96
Cc1cc(-c2nnc(NCC3OCCS3(=O)=O)o2)nc2c(C(C)(C)C)cc(OCC(F)(F)F)cc12 (centres unmarked) [Compound 483]	1.72
Cc1cc(-c2nnc(NCC3S(=O)(=O)CCS3(=O)=O)o2)nc2c(C(C)(C)C)cc(OCC(F)(F)F)cc12 [Compound 484]	2190
Cc1cc(-c2nnc(NCC3COC3)o2)nc2c(C(C)(C)C)cc(OCC(F)(F)F)cc12 [Compound 485]	1050
Cc1cc(-c2nnc(NCC3(C)COC3)o2)nc2c(C(C)(C)C)cc(OCC(F)(F)F)cc12 [Compound 486]	1850
Cc1cc(-c2nnc(NC3COC3)o2)nc2c(C(C)(C)C)cc(OCC(F)(F)F)cc12 [Compound 487]	41.5
Cc1cc(-c2nnc(NC3CCOCC3)o2)nc2c(C(C)(C)C)cc(OCC(F)(F)F)cc12 [Compound 488]	6.82
Cc1cc(-c2nnc(NC3CCC(O)(CF)C3)o2)nc2c(C(C)(C)C)cc(OCC(F)(F)F)cc12 (centres unmarked) [Compound 489]	26.7
Cc1cc(-c2nnc(N[C@H]3CC[C@](O)(CF)C3)o2)nc2c(C(C)(C)C)cc(OCC(F)(F)F)cc12 [Compound 491]	0.57
Cc1cc(-c2nnc(N[C@H]3CC[C@@](O)(CF)C3)o2)nc2c(C(C)(C)C)cc(OCC(F)(F)F)cc12 [Compound 492]	19.3
Cc1cc(-c2nnc(N[C@H]3CC[C@H](O)CC3)o2)nc2c(C(C)(C)C)cc(OCC(F)(F)F)cc12 [Compound 493]	8.74
CSCOC1(C)CC(Nc2nnc(-c3cc(C)c4cc(OCC(F)(F)F)cc(C(C)(C)C)c4n3)o2)C1 (centres unmarked) [Compound 494]	43.1
Cc1cc(-c2nnc(NC3CC(C)(OCS(C)(=O)=O)C3)o2)nc2c(C(C)(C)C)cc(OCC(F)(F)F)cc12 (centres unmarked) [Compound 495]	38.4
Cc1cc(-c2nnc(N[C@H]3CC[C@@H](O)CC3)o2)nc2c(C(C)(C)C)cc(OCC(F)(F)F)cc12 [Compound 498]	2.39
Cc1cc(-c2nnc(N[C@H]3C[C@](O)(CO)C3)o2)nc2c(C(C)(C)C)cc(OCC(F)(F)F)cc12 [Compound 499]	16.8
Cc1cc(-c2nnc(N[C@H]3C[C@@](O)(CO)C3)o2)nc2c(C(C)(C)C)cc(OCC(F)(F)F)cc12 [Compound 500]	7.57

Structure (SMILES)	EC50 [nM]
Cc1cc(-c2nnc(NC3CSC3)o2)nc2c(C(C)(C)C)cc(OCC(F)(F)F)cc12 [Compound 505]	6.25
Cc1cc(-c2nnc(NC3CS(=O)(=O)C3)o2)nc2c(C(C)(C)C)cc(OCC(F)(F)F)cc12 [Compound 506]	62.5
Cc1cc(-c2nnc(N[C@H]3C[S@@+]([O-])C3)o2)nc2c(C(C)(C)C)cc(OCC(F)(F)F)cc12 [Compound 507]	19.1
Cc1cc(-c2nnc(N[C@H]3C[S@+]([O-])C3)o2)nc2c(C(C)(C)C)cc(OCC(F)(F)F)cc12 [Compound 508]	24.3
Cc1cc(C(=O)NC[C@@H]2CS(=O)(=O)CCN2)nc2c(C(C)(C)C)cc(OCC(F)(F)F)cc12 [Compound 509]	3.61
Cc1cc(C(=O)NC[C@@H]2CC3(CN2)OCCO3)nc2c(C(C)(C)C)cc(OCC(F)(F)F)cc12 [Compound 510]	9.8
Cc1cc(C(=O)NC[C@@H]2CC3(CN2)OCCO3)nc2c(C(F)(F)F)cc(OCC(F)(F)F)cc12 [Compound 511]	32.3
Cc1cc(-c2nnc(N[C@H]3C[C@@](O)(CO)C3)o2)nc2c(C(C)(C)C)cc(C3CC3)cc12 [Compound 514]	11.2
Cc1cc(-c2nnc(NC3CC4(COCO4)C3)o2)nc2c(C(C)(C)C)cc(C3CC3)cc12 (centres unmarked) [Compound 515]	15.9
Cc1cc(-c2nnc(N[C@H]3C[C@@](O)(CF)C3)o2)nc2c(C(C)(C)C)cc(C3CC3)cc12 [Compound 516]	7.15
Cc1cc(-c2nnc(N[C@H]3C[C@@](O)(CF)C3)o2)nc2c(C(C)(C)C)cc(OCC(F)(F)F)cc12 [Compound 517]	5.76
Cc1cc(-c2nnc(N[C@H]3C[C@@H](O)C3)s2)nc2c(C(C)(C)C)cc(OCC(F)(F)F)cc12 [Compound 518]	51.3
Cc1cc(-c2nnc(Nc3cccnc3)s2)nc2c(C(C)(C)C)cc(OCC(F)(F)F)cc12 [Compound 519]	21.1
CC(C)(C)c1cc(OCC(F)(F)F)cc2c(N)cc(-c3nnc(Nc4ccccn4)o3)nc12 [Compound 520]	0.44
CC(C)(C)c1cc(OCC(F)(F)F)cc2c(Cl)cc(-c3nnc(NCC4OCCO4)o3)nc12 [Compound 522]	5.85
Cc1cc(-c2nnc(NCC3OCCO3)o2)nc2c(C(C)(C)C)cc(OCC(F)(F)C(F)(F)F)cc12 [Compound 523]	233
Cc1cc(-c2nnc(NCC3OCCO3)o2)nc2c(C(C)(C)C)cc(OC(F)F)cc12 [Compound 524]	1.25
Cc1cc(-c2nnc(N[C@H]3C[C@@](C)(O)C3)o2)nc2c(C(C)(C)C)cc(OC(F)F)cc12 [Compound 525]	0.74
Cc1cc(-c2nnc(NCC3OCCO3)o2)nc2c(C(C)(C)C)cc(OCC(F)F)cc12 [Compound 526]	1.64
Cc1cc(-c2nnc(N[C@H]3C[C@](O)(CF)C3)o2)nc2c(C(C)(C)C)cc(OC(F)F)cc12 [Compound 527]	0.81
Cc1cc(-c2nnc(N[C@H]3C[C@](O)(CF)C3)o2)nc2c(C(C)(C)C)cc(OCC(F)F)cc12 [Compound 528]	0.41
Cc1cc(-c2nnc(N[C@H]3C[C@](O)(CF)C3)o2)nc2c(C(C)(C)C)cc(OCCF)cc12 [Compound 529]	1.37

same assay, conditions: Hepatitis C virus, Huh-7, 72 h; read-out: EC50_HCV1B_

Structure (SMILES)	EC50 [nM]
Cc1cc(-c2nnc(N[C@H]3C[C@@](CF)(OP(=O)(O)O)C3)o2)nc2c(C(C)(C)C)cc(OCC(F)(F)F)cc12 [Compound 470]	0.72
